Measured values: patent publication US7763287B2, “Extract of Cercis chinensis having anti-oxidant activity and anti-aging activity, and cosmetical composition containing the extract for anti-oxidation, skin-aging protection and wrinkle improvement” (Hankook Pharm. Co., Inc., priority 2002, dated 2010)

Legend:
[1] = Hydroxyl radical scavenging activity (deoxyribose/TBA, method of Halliwell); format: biochemical; details: 10 μg of sample, total volume 1 ml
Method: Hydroxyl radical (HO.) is generated by the reaction of a metal ion or a superoxide radical. Owing to its strong reactivity, hydroxyl radical causes oxidative damages to DNA, protein and lipid in vivo. Nitric oxide (NO.) is reacted with a superoxide radical to generate a peroxy nitrite (ONOO—), also having strong reactivity. […] Particularly, each compound was mixed with 10 μg of a sample dissolved in DMSO, phosphate buffer (20 mM, pH 7.4) 5.6 mM deoxyribose, 0.1 mM FeCl3, 1 mM H2O2 and 0.1 mM ascorbic acid, making total volume 1 ml, which was then reacted at 37° C. for 60 minutes. 250 μl of 20% TCA and 250 μl of 1% TBA solution (dissolved in 50 mM NaOH) were added to the reaction solution, followed by thermal reaction at 95° C. for 5 minutes. After completing the reaction, OD532 was measured. Hydroxyl radical scavenging activity was calculated by the below
<Mathematical Formula 3>. BHA and α-tocopherol were used for a positive control. Hydroxyl Radical Scavenging Activity (%)=(Acontrol−Asample)/(Acontrol−Ablank)×100 <Mathematical Formula 3>
Acontrol: Optical density of control group well (sample was not added),
Asample: Optical density of experimental group well (sample was added),
Ablank: Optical density of well not added with sample, TCA and TBA

rat brain homogenates = assay: Lipid peroxidation inhibitory activity (Fe2+/ascorbic acid, TBA method); details: Table 4
[2] = Superoxide radical scavenging activity (xanthine/xanthine oxidase, NBT); format: biochemical; details: Table 6
Method: Superoxide radical (O^2−) itself has a little reactivity, but is easily changed into H2O2 that generates hydroxyl radical having strong reactivity or is reacted with nitric oxide (NO.) to generate peroxy nitrite (ONOO^−) having strong reactivity, too. Thus, it might be a reason for oxidation of SH-group, nitration of protein tyrosine, lipid peroxidation and DNA damage. […] Basically, measurement of superoxide radical scavenging activity was performed by investigating the activity of superoxide dismutase (SOD), an enzyme scavenging superoxide by dismutation of the same. In the present invention, an activity of a sample to inhibit superoxide production by the enzyme reaction of xanthine/xanthine oxidase and its another activity to inhibit reaction (NBT+20^2−→NBTH2+2O2) generating formazan by reduction of nitro blue tetrazolium (referred as ‘NBT’ hereinafter) were measured. Particularly, wells of a 96-well plate were supplemented with 50 μl of 4 mM xanthine (Sigma), 50 μl of […] NBT (Sigma), 50 μl of 50 mM phosphate buffer (pH 7.8, 1 mM EDTA) and 10 μl of each sample, into which 40 μl of xanthine oxidase was added to induce a reaction. After the reaction was completed, each reaction solution was collected as scheduled, and OD550 was measured with an ELISA reader. […] Superoxide Radical Scavenging Activity (%)=(Acontrol−Asample)/(Acontrol−Ablank)×100 <Mathematical Formula 4> […]

Lipid Peroxidation Inhibitory Activity IC50 (rat brain homogenates): 0.95 ± 0.06 µg/mL | Superoxide radical scavenging activity IC50 [2]: 12.1 ± 1.1 µg/mL
Structure (SMILES): O=c1c(O)c(-c2cc(O)c(O)c(O)c2)oc2cc(O)cc(O)c12 [Chemical Formula 9, myricetin]
Hydroxyl radical scavenging activity (%) [1]: 8.7%
